Measured values reported in patent publication US20210045385A1, “PYRIDAZINONE-SUBSTITUTED KETOXIMES AS HERBICIDES” (FMC Corporation, priority 2018, published 2021).

Assays:
Assay type in all cases: in vivo
[1] = tested on: sedge umbrella (small-flower umbrella sedge, Cyperus difformis); experiment: Test D flooded paddy test, visual plant response rating; details: 250 g ai/ha, scale 0 to 100 (0 no effect, 100 complete control), 13 to 15 d
Outline: (§1)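 Rating is visual, on a 0 (no effect) to 100 (complete control) scale versus controls, taken 13 to 15 d after treatment in a greenhouse. Treatment went into paddy water kept 3 cm above the soil surface, with plants at the 2-leaf stage.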

rice (Oryza sativa) = experiment: as above; details: 250 g ai/ha, scale 0 to 100 (0 no effect, 100 complete control), 13 to 15 d
Outline: as §1

[2] = tested on: duck salad (Heteranthera limosa); experiment: as above; details: 250 g ai/ha, scale 0 to 100 (0 no effect, 100 complete control), 13 to 15 d
Outline: as §1

[3] = tested on: barnyardgrass (Echinochloa crus-galli); experiment: as above; details: 250 g ai/ha, scale 0 to 100 (0 no effect, 100 complete control), 13 to 15 d
Outline: as §1

kochia (Bassia scoparia) [4] = experiment: Test C preemergence, visual plant response rating; details: Test C, 0 is no effect, 100 is complete control
Outline: (§2)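 Visual injury on a 0 (no effect) to 100 (complete control) scale versus untreated controls, scored approximately 10 d after treatment under greenhouse conditions. Treatments used surfactant-containing non-phytotoxic solvent formulations, sprayed onto loam–sand soil preemergence or onto one- to two-leaf plants 2–10 cm tall postemergence.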

[5] = tested on: Italian ryegrass (Lolium mutiflorum); experiment: Test C preemergence, visual plant response rating; details: Test C, 0 is no effect, 100 is complete control
Outline: as §2

[6] = tested on: barnyardgrass (Echinochloa crus-galli); experiment: Test C preemergence, visual plant response rating; details: Test C, 0 is no effect, 100 is complete control
Outline: as §2

[7] = tested on: ragweed (common ragweed, Ambrosia artemisiifolia); experiment: Test C preemergence, visual plant response rating; details: Test C, 0 is no effect, 100 is complete control
Outline: as §2

[8] = tested on: pigweed (Amaranthus retroflexus); experiment: Test C preemergence, visual plant response rating; details: Test C, 0 is no effect, 100 is complete control
Outline: as §2

[9] = tested on: foxtail, giant (giant foxtail, Setaria faberi); experiment: Test C preemergence, visual plant response rating; details: Test C, 0 is no effect, 100 is complete control
Outline: as §2

[10] = tested on: galium (catchweed bedstraw, Galium aparine); experiment: Test C postemergence, visual plant response rating
Outline: as §2

kochia (Bassia scoparia) [11] = experiment: Test C postemergence, visual plant response rating
Outline: as §2

[12] = tested on: wheat (Triticum aestivum); experiment: Test C postemergence, visual plant response rating
Outline: as §2

[13] = tested on: Italian ryegrass (Lolium mutiflorum); experiment: Test C postemergence, visual plant response rating
Outline: as §2

[14] = tested on: blackgrass (Alopecurus myosuroides); experiment: Test C postemergence, visual plant response rating
Outline: as §2

[15] = tested on: barnyardgrass (Echinochloa crus-galli); experiment: Test C postemergence, visual plant response rating
Outline: as §2

corn (Zea mays) = experiment: Test C postemergence, visual plant response rating
Outline: as §2

[16] = tested on: ragweed (common ragweed, Ambrosia artemisiifolia); experiment: Test C postemergence, visual plant response rating
Outline: as §2

[17] = tested on: pigweed (Amaranthus retroflexus); experiment: Test C postemergence, visual plant response rating
Outline: as §2

[18] = tested on: foxtail, giant (giant foxtail, Setaria faberi); experiment: Test C postemergence, visual plant response rating
Outline: as §2

[19] = Test C, postemergence, 125 g ai/ha

Structure (SMILES) | Plant response rating, Sedge, Umbrella (Flood) [1] | Plant response rating, Rice (Flood) (rice (Oryza sativa)) | Plant response rating, Ducksalad (Flood) [2] | Plant response rating, Barnyardgrass (Flood) [3] | Kochia plant response rating (0 to 100 scale) (kochia (Bassia scoparia) [4]; 31 g ai/ha) | Kochia plant response rating (0 to 100 scale) (kochia (Bassia scoparia) [4]; 125 g ai/ha) | Ryegrass, Italian plant response rating (0 to 100 scale) ([5]; 31 g ai/ha) | Ryegrass, Italian plant response rating (0 to 100 scale) ([5]; 125 g ai/ha) | Barnyardgrass plant response rating (0 to 100 scale) ([6]; 31 g ai/ha) | Barnyardgrass plant response rating (0 to 100 scale) ([6]; 125 g ai/ha) | Ragweed plant response rating (0 to 100 scale) ([7]; 31 g ai/ha) | Ragweed plant response rating (0 to 100 scale) ([7]; 125 g ai/ha) | Pigweed plant response rating (0 to 100 scale) ([8]; 31 g ai/ha) | Pigweed plant response rating (0 to 100 scale) ([8]; 125 g ai/ha) | Foxtail, Giant plant response rating (0 to 100 scale) ([9]; 31 g ai/ha) | Foxtail, Giant plant response rating (0 to 100 scale) ([9]; 125 g ai/ha) | Galium plant response rating (0 to 100 scale) ([10]; Postemergence, 31 g ai/ha) | Galium plant response rating (0 to 100 scale) [10, 19] | Kochia plant response rating (0 to 100 scale) (kochia (Bassia scoparia) [11]; Postemergence, 31 g ai/ha) | Kochia plant response rating (0 to 100 scale) (kochia (Bassia scoparia) [11]; [19]) | also measured
C#CCO/N=C(/c1cccc(/C=C\Cl)c1)c1c(O)c(C)nn(C)c1=O [Compound 261] | 0 | 0 | 0 | 0 | 0 | 0 | 0 | 70 | 0 | 0 | 0 | 10 | 0 | 10 | 0 | 10 | 40 | 80 | 30 | 60 | Wheat plant response rating (0 to 100 scale) ([12]; Postemergence, 31 g ai/ha): 0; Wheat plant response rating (0 to 100 scale) [12, 19]: 50; Ryegrass, Italian plant response rating (0 to 100 scale) ([13]; Postemergence, 31 g ai/ha): 0; Ryegrass, Italian plant response rating (0 to 100 scale) [13, 19]: 60; Blackgrass plant response rating (0 to 100 scale) ([14]; Postemergence, 31 g ai/ha): 0; Blackgrass plant response rating (0 to 100 scale) [14, 19]: 60; Barnyardgrass plant response rating (0 to 100 scale) ([15]; Postemergence, 31 g ai/ha): 20; Barnyardgrass plant response rating (0 to 100 scale) [15, 19]: 40; Corn plant response rating (0 to 100 scale) (corn (Zea mays); Postemergence, 31 g ai/ha): 0; Corn plant response rating (0 to 100 scale) (corn (Zea mays); [19]): 10; Ragweed plant response rating (0 to 100 scale) ([16]; Postemergence, 31 g ai/ha): 40; Ragweed plant response rating (0 to 100 scale) [16, 19]: 60; Pigweed plant response rating (0 to 100 scale) ([17]; Postemergence, 31 g ai/ha): 50; Pigweed plant response rating (0 to 100 scale) [17, 19]: 60; Foxtail, Giant plant response rating (0 to 100 scale) ([18]; Postemergence, 31 g ai/ha): 10; Foxtail, Giant plant response rating (0 to 100 scale) [18, 19]: 50
C#CCO/N=C(\c1cccc(/C=C\Cl)c1)c1c(O)c(C)nn(C)c1=O [Compound 264] | 0 | 0 | 0 | 0 | 0 | 0 | 0 | 90 | 0 | 0 | 0 | 30 | 0 | 30 | 0 | 20 | 50 | 70 | 40 | 70 | Wheat plant response rating (0 to 100 scale) ([12]; Postemergence, 31 g ai/ha): 20; Wheat plant response rating (0 to 100 scale) [12, 19]: 50; Ryegrass, Italian plant response rating (0 to 100 scale) ([13]; Postemergence, 31 g ai/ha): 0; Ryegrass, Italian plant response rating (0 to 100 scale) [13, 19]: 70; Blackgrass plant response rating (0 to 100 scale) ([14]; Postemergence, 31 g ai/ha): 30; Blackgrass plant response rating (0 to 100 scale) [14, 19]: 60; Barnyardgrass plant response rating (0 to 100 scale) ([15]; Postemergence, 31 g ai/ha): 10; Barnyardgrass plant response rating (0 to 100 scale) [15, 19]: 50; Corn plant response rating (0 to 100 scale) (corn (Zea mays); Postemergence, 31 g ai/ha): 10; Corn plant response rating (0 to 100 scale) (corn (Zea mays); [19]): 0; Ragweed plant response rating (0 to 100 scale) ([16]; Postemergence, 31 g ai/ha): 40; Ragweed plant response rating (0 to 100 scale) [16, 19]: 60; Pigweed plant response rating (0 to 100 scale) ([17]; Postemergence, 31 g ai/ha): 40; Pigweed plant response rating (0 to 100 scale) [17, 19]: 60; Foxtail, Giant plant response rating (0 to 100 scale) ([18]; Postemergence, 31 g ai/ha): 10; Foxtail, Giant plant response rating (0 to 100 scale) [18, 19]: 60
CCCCON=C(c1cc(Cl)cc(Cl)c1Cl)c1c(O)c(C)nn(C)c1=O [Compound 268] | 0 | 0 | 0 | 0 | 0 | 0 | 20 | 90 | 30 | 70 | 10 | 60 | 0 | 0 | 70 | 100 | 20 | 50 | 10 | 20 | Wheat plant response rating (0 to 100 scale) ([12]; Postemergence, 31 g ai/ha): 0; Wheat plant response rating (0 to 100 scale) [12, 19]: 20; Ryegrass, Italian plant response rating (0 to 100 scale) ([13]; Postemergence, 31 g ai/ha): 60; Ryegrass, Italian plant response rating (0 to 100 scale) [13, 19]: 100; Blackgrass plant response rating (0 to 100 scale) ([14]; Postemergence, 31 g ai/ha): 0; Blackgrass plant response rating (0 to 100 scale) [14, 19]: 20; Barnyardgrass plant response rating (0 to 100 scale) ([15]; Postemergence, 31 g ai/ha): 50; Barnyardgrass plant response rating (0 to 100 scale) [15, 19]: 60; Corn plant response rating (0 to 100 scale) (corn (Zea mays); Postemergence, 31 g ai/ha): 0; Corn plant response rating (0 to 100 scale) (corn (Zea mays); [19]): 30; Ragweed plant response rating (0 to 100 scale) ([16]; Postemergence, 31 g ai/ha): 70; Ragweed plant response rating (0 to 100 scale) [16, 19]: 100; Pigweed plant response rating (0 to 100 scale) ([17]; Postemergence, 31 g ai/ha): 10; Pigweed plant response rating (0 to 100 scale) [17, 19]: 20; Foxtail, Giant plant response rating (0 to 100 scale) ([18]; Postemergence, 31 g ai/ha): 60; Foxtail, Giant plant response rating (0 to 100 scale) [18, 19]: 90
CCO/N=C(\c1c(O)cnn(C)c1=O)c1ccc(F)c2ccccc12 [Compound 269] | 0 | 0 | 0 | 0 | 0 | 0 | 0 | 10 | 0 | 0 | 0 | 0 | 0 | 10 | 0 | 30 | 50 | 80 | 0 | 30 | Wheat plant response rating (0 to 100 scale) ([12]; Postemergence, 31 g ai/ha): 0; Wheat plant response rating (0 to 100 scale) [12, 19]: 0; Ryegrass, Italian plant response rating (0 to 100 scale) ([13]; Postemergence, 31 g ai/ha): 0; Ryegrass, Italian plant response rating (0 to 100 scale) [13, 19]: 60; Blackgrass plant response rating (0 to 100 scale) ([14]; Postemergence, 31 g ai/ha): 0; Blackgrass plant response rating (0 to 100 scale) [14, 19]: 30; Barnyardgrass plant response rating (0 to 100 scale) ([15]; Postemergence, 31 g ai/ha): 0; Barnyardgrass plant response rating (0 to 100 scale) [15, 19]: 0; Corn plant response rating (0 to 100 scale) (corn (Zea mays); Postemergence, 31 g ai/ha): 0; Corn plant response rating (0 to 100 scale) (corn (Zea mays); [19]): 20; Ragweed plant response rating (0 to 100 scale) ([16]; Postemergence, 31 g ai/ha): 10; Ragweed plant response rating (0 to 100 scale) [16, 19]: 40; Pigweed plant response rating (0 to 100 scale) ([17]; Postemergence, 31 g ai/ha): 50; Pigweed plant response rating (0 to 100 scale) [17, 19]: 60; Foxtail, Giant plant response rating (0 to 100 scale) ([18]; Postemergence, 31 g ai/ha): 10; Foxtail, Giant plant response rating (0 to 100 scale) [18, 19]: 40
